Experimental findings from patent US20060030585A1, “Tricyclic delta-opioid modulators” (priority 2004, published 2006) are described below.

Like-named read-outs stand apart in the source and are kept apart here.

One assay deals with delta opioid receptor (Rattus norvegicus, UniProt P33533). Description: Rat brain delta opioid receptor binding assay ([3H]DPDPE). The note with it: Rat delta opioid receptor binding constant, rat forebrain membranes, ~4 nM [3H]DPDPE. As to the method: Rat Brain Delta Opioid Receptor Binding Assay
Procedure: Male, Sprague Dawley rats (150-250 g, VAF, Charles River, Kingston, N.Y.) were killed by CO2, and their brains removed and placed immediately in ice cold Tris HCl buffer (50 mM, pH 7.4). The forebrains were separated from the remainder of the brain by a coronal transection, beginning dorsally at the colliculi and passing ventrally through the midbrain-pontine junction. After dissection, the forebrains were homogenized in Tris buffer in a Teflon®-glass homogenizer. The homogenate was diluted to a concentration of 1 g of forebrain tissue per 80 mL Tris and centrifuged at 39,000×g for 10 min. The pellet was resuspended in the same volume of Tris buffer containing 5 mM MgCl2 with several brief pulses from a Polytron homogenizer. This particulate preparation was used for the delta opioid binding assays. Following incubation with the delta selective peptide ligand ˜4 nM [^3H]DPDPE at 25° C. for 2.5 h in a 96-well plate with total volume of 1 mL, the plate contents were filtered through Wallac filtermat B sheets on a Tomtec 96-well harvester. The filters were rinsed three times with 2 mL of 10 mM HEPES (pH 7.4), and dried in a 650 W microwave oven for 1.75 min twice. To each sample area 2×50 μL of Betaplate Scint scintillation fluid (LKB) was added and the radioactivity quantified on a LKB (Wallac) 1205 BetaPlate liquid scintillation counter.
Analysis: The data from the scintillation counter were used to calculate either the % inhibition compared to control binding (when only a single concentration of test compound was evaluated) or a Ki value (when a range of concentrations was tested). Percent inhibition was calculated as: [(total dpm-test compound dpm)/(total dpm-nonspecific dpm)]*100. Kd and Ki values were calculated using GraphPad PRISM data analysis program.

For another assay, the target named is mu opioid receptor (Rattus norvegicus, UniProt P33535). Description: Rat brain mu opioid receptor binding assay ([3H]DAMGO). The note with it: Rat mu opioid receptor binding constant, rat forebrain membranes, ~0.8 nM [3H]DAMGO. As to the method: Rat Brain Mu Opioid Receptor Binding Assay
Procedure: Male, Sprague Dawley rats (150-250 g, VAF, Charles River, Kingston, N.Y.) were killed by CO2, and their brains removed and placed immediately in ice cold Tris HCl buffer (50 mM, pH 7.4). The forebrains were separated from the remainder of the brain by a coronal transection, beginning dorsally at the colliculi and passing ventrally through the midbrain-pontine junction. After dissection, the forebrains were homogenized in Tris buffer in a Teflon®-glass homogenizer. The homogenate was diluted to a concentration of 1 g of forebrain tissue per 80 mL Tris and centrifuged at 39,000×g for 10 min. The pellet was resuspended in the same volume of Tris buffer containing 5 mM MgCl2 with several brief pulses from a Polytron homogenizer. This particulate preparation was used for the delta opioid binding assays.
Analysis: The data from the scintillation counter were used to calculate either the % inhibition compared to control binding (when only a single concentration of test compound was evaluated) or a Ki value (when a range of concentrations tested). Percent inhibition was calculated as: [(total dpm-test compound dpm)/(total dpm-nonspecific dpm)]*100. Kd and Ki values were calculated using GraphPad PRISM data analysis program.

delta opioid receptor, sequence (P33533 whole entry): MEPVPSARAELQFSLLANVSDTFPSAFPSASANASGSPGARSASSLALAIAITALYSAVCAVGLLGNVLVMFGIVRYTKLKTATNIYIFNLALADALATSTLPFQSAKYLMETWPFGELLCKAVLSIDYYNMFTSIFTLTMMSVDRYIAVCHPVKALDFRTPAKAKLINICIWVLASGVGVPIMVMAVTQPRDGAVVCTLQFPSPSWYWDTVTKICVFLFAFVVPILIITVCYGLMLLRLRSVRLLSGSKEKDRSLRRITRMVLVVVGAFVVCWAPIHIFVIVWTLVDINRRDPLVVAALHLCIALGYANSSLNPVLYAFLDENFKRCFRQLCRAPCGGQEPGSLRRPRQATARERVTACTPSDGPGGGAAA
mu opioid receptor, sequence (P33535 whole entry): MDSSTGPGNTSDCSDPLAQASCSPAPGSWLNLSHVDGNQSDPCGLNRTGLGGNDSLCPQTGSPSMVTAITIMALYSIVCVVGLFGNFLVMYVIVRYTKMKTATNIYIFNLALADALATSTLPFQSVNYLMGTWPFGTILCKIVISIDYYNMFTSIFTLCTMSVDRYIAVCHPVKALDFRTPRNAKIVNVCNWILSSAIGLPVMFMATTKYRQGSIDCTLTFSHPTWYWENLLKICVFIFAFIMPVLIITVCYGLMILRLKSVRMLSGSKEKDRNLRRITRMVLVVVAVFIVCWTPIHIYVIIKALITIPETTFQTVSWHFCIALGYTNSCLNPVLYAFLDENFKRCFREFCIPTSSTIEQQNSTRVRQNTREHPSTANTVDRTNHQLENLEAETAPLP

A word on the Ki: it is the dissociation constant of the complex between target and ligand, obtained from inhibition or displacement. As for `O=C(NC(CO)Cc1ccccc1)c1ccc2c(c1)Oc1ccccc1C2=C1CC2CCC(C1)N2` (single isomer, unassigned) [Cpd 27], the Ki on delta opioid receptor (DOR Ki) and on mu opioid receptor (MOR Ki) was 100 nM throughout.

Regarding `O=C(c1ccc2c(c1)Oc1ccccc1C2=C1CC2CCC(C1)N2)N1CCC(O)C1` (single isomer, unassigned) [Cpd 69], the Ki was determined as 105 nM on delta opioid receptor (DOR Ki) and 2060 nM on mu opioid receptor (MOR Ki). On the same counts, the results for `O=C(c1ccc2c(c1)Oc1ccccc1C2=C1CC2CCC(C1)N2)N1CCC(O)C1` (single isomer, unassigned) [Cpd 70] are 63 nM and 1660 nM.

Turning to `c1ccc2c(c1)Sc1cc(-c3nnn[nH]3)ccc1C2=C1C[C@H]2CC[C@@H](C1)N2` (single isomer, unassigned) [Cpd 102, (1RS,5SR)-3-[3-(1H-Tetrazol-5-yl)-thioxanthen-9-ylidene]-8-aza-bicyclo[3.2.1]octane], the results for the Ki on delta opioid receptor (DOR Ki) and at mu opioid receptor (MOR Ki) were 54 nM and 2770 nM, respectively. On the same counts, the results for `O=C(c1ccc2c(c1)Oc1ccccc1C2=C1CC2CCC(C1)N2)N1CCC(O)C1` (single isomer, unassigned) [Cpd 127] are 191 nM and 907 nM. On the same counts, the results for `CCN(CC)C(=N)c1ccc2c(c1)Oc1ccccc1C2=C1CC2CCC(C1)N2` [Cpd 9, 9-(8-Aza-bicyclo[3.2.1]oct-3-ylidene)-N,N-diethyl-9H-xanthene-3-carboxamidine] are 14 nM and 3540 nM. For `O=S1NC(c2ccc3c(c2)Oc2ccccc2C3=C2CC3CCC(C2)N3)=NO1` (stereo not drawn) [Cpd 10, 3-[3-(2-Oxo-2,3-dihydro-2|4-[1,2,3,5]oxathiadiazol-4-yl)-xanthen-9-ylidene]-8-aza-bicyclo[3.2.1]octane], in that order: 15.1 nM and 819 nM. Take `CN(C(=O)c1ccc2c(c1)Oc1ccccc1C2=C1CC2CCC(C1)N2)c1ccccc1` [Cpd 14]: the values for the Ki on delta opioid receptor (DOR Ki) and at mu opioid receptor (MOR Ki) were 27.1 nM and 1160 nM, respectively. For `CN(CCc1ccccc1)C(=O)c1ccc2c(c1)Oc1ccccc1C2=C1CC2CCC(C1)N2` [Cpd 17], in that order: 37 nM and 37 nM. On the same counts, the results for `NC(=O)c1ccccc1-c1ccc2c(c1)Oc1ccccc1C2=C1CC2CCC(C1)N2` [Cpd 18] are 38 nM and 1540 nM. As to `O=C(NCCc1ccccc1)c1ccc2c(c1)Oc1ccccc1C2=C1CC2CCC(C1)N2` [Cpd 19], the Ki came to 45 nM at delta opioid receptor (DOR Ki) and 438 nM at mu opioid receptor (MOR Ki). On the same counts, the results for `CC(=O)Nc1cccc(-c2ccc3c(c2)Oc2ccccc2C3=C2CC3CCC(C2)N3)c1` [Cpd 20] are 46.6 nM and 2800 nM. On the same counts, the results for `Cn1nnnc1-c1ccc2c(c1)Oc1ccccc1C2=C1CC2CCC(C1)N2` [Cpd 21, 3-[3-(1-Methyl-1 H-tetrazol-5-yl)-xanthen-9-ylidene]-8-aza-bicyclo[3.2.1]octane] are 54 nM and 1740 nM.

As for `CN(C(=O)c1ccc2c(c1)Oc1ccccc1C2=C1CC2CCC(C1)N2)C1CCCCC1` [Cpd 22], the Ki was 54.9 nM at delta opioid receptor (DOR Ki) and 1120 nM at mu opioid receptor (MOR Ki). On the same counts, the results for `OCc1cccc(-c2ccc3c(c2)Oc2ccccc2C3=C2CC3CCC(C2)N3)c1` [Cpd 23] are 75 nM and 3510 nM.

Take `NC(=NO)c1ccc2c(c1)Oc1ccccc1C2=C1CC2CCC(C1)N2` [Cpd 24]: the values for the Ki on delta opioid receptor (DOR Ki) and on mu opioid receptor (MOR Ki) were 76.8 nM and 621 nM, respectively. For `Nc1ccccc1-c1ccc2c(c1)Oc1ccccc1C2=C1CC2CCC(C1)N2` [Cpd 25], in that order: 77.4 nM and 1660 nM. For `CCc1cnc(-c2ccc3c(c2)Oc2ccccc2C3=C2CC3CCC(C2)N3)[nH]1` [Cpd 26, 3-[3-(5-Ethyl-1 H-imidazol-2-yl)-xanthen-9-ylidene]-8-aza-bicyclo[3.2.1]-octane], the values for the Ki on delta opioid receptor (DOR Ki) and at mu opioid receptor (MOR Ki) were 81 nM and 249 nM, respectively. As to `CC(C)CN(CC(C)C)C(=N)c1ccc2c(c1)Oc1ccccc1C2=C1CC2CCC(C1)N2` [Cpd 28], the inhibition constant Ki was 107 nM on delta opioid receptor (DOR Ki) and 3100 nM at mu opioid receptor (MOR Ki). On the same counts, the results for `c1ccc2c(c1)Oc1cc(-c3ccncc3)ccc1C2=C1CC2CCC(C1)N2` [Cpd 29] are 133 nM and 1820 nM.

Regarding `CC(=O)Nc1ccc(-c2ccc3c(c2)Oc2ccccc2C3=C2CC3CCC(C2)N3)cc1` [Cpd 30], the Ki at delta opioid receptor (DOR Ki) came to 139 nM; on mu opioid receptor (MOR Ki) it was 2740 nM. Take `COC[C@H](Cc1ccccc1)NC(=O)c1ccc2c(c1)Oc1ccccc1C2=C1CC2CCC(C1)N2` [Cpd 31]: the Ki at delta opioid receptor (read-out: DOR Ki) worked out at 142 nM; on mu opioid receptor (read-out: MOR Ki) it was 660 nM. `COc1ccc(-c2ccc3c(c2)Oc2ccccc2C3=C2CC3CCC(C2)N3)cn1` [Cpd 32] showed a Ki at delta opioid receptor (DOR Ki) of 160 nM. As for `c1ccc2c(c1)Oc1cc(C3=NCCN3)ccc1C2=C1CC2CCC(C1)N2` [Cpd 33], the results for the Ki at delta opioid receptor (DOR Ki) and on mu opioid receptor (MOR Ki) were 224 nM and 315 nM, respectively. For the compound `O=C(NC1CCC(c2ccccc2)CC1)c1ccc2c(c1)Oc1ccccc1C2=C1CC2CCC(C1)N2` (stereo not drawn) [Cpd 34], the Ki on delta opioid receptor (read-out: DOR Ki) came to 247 nM; at mu opioid receptor (read-out: MOR Ki), 6240 nM. For `Cc1nnc(-c2ccc3c(c2)Oc2ccccc2C3=C2CC3CCC(C2)N3)[nH]1` [Cpd 35, 3-[3-(5-Methyl-4H-[1,2,4]triazol-3-yl)-xanthen-9-ylidene]-8-aza-bicyclo[3.2.1]octane], the Ki turned out to be 266 nM on delta opioid receptor (DOR Ki) and 673 nM on mu opioid receptor (MOR Ki). In the case of `Cc1nc(-c2ccc3c(c2)Oc2ccccc2C3=C2CC3CCC(C2)N3)no1` [Cpd 36, 3-[3-(5-Methyl-[1,2,4]oxadiazol-3-yl)-xanthen-9-ylidene]-8-aza-bicyclo[3.2.1]octane], the values for the Ki at delta opioid receptor (DOR Ki) and at mu opioid receptor (MOR Ki) were 373 nM and 3550 nM, respectively. As for `COC(=O)[C@H](CO)NC(=O)c1ccc2c(c1)Oc1ccccc1C2=C1CC2CCC(C1)N2` [Cpd 37], the values for the Ki at delta opioid receptor (DOR Ki) and at mu opioid receptor (MOR Ki) were 412 nM and 950 nM, respectively. Consider `Oc1cccc(-c2ccc3c(c2)Oc2ccccc2C3=C2CC3CCC(C2)N3)c1` [Cpd 38], for which the Ki at delta opioid receptor (DOR Ki) turned out to be 418 nM; at mu opioid receptor (MOR Ki), 706 nM. For `CC(C)NC(=N)c1ccc2c(c1)Oc1ccccc1C2=C1CC2CCC(C1)N2` [Cpd 39], in that order: 441 nM and 5170 nM. Turning to `O=C(NCc1ccccc1)c1ccc2c(c1)Oc1ccccc1C2=C1CC2CCC(C1)N2` [Cpd 40], the inhibition constant Ki came to 456 nM on delta opioid receptor (read-out: DOR Ki) and 3090 nM at mu opioid receptor (read-out: MOR Ki). Turning to `c1ccc2c(c1)Oc1cc(C3=NCCCN3)ccc1C2=C1CC2CCC(C1)N2` [Cpd 41], the Ki came out at 464 nM at delta opioid receptor (DOR Ki) and 875 nM on mu opioid receptor (MOR Ki). For `Nc1ccc(-c2ccc3c(c2)Oc2ccccc2C3=C2CC3CCC(C2)N3)cc1` [Cpd 42], in that order: 490 nM and 1310 nM. As for `N=C(c1ccc2c(c1)Oc1ccccc1C2=C1CC2CCC(C1)N2)N1CCCCC1` [Cpd 43], the Ki came to 496 nM on delta opioid receptor (DOR Ki) and 5340 nM on mu opioid receptor (MOR Ki). For the compound `COc1ccccc1-c1ccc2c(c1)Oc1ccccc1C2=C1CC2CCC(C1)N2` [Cpd 44], the inhibition constant (Ki) on delta opioid receptor (DOR Ki) was 659 nM; on mu opioid receptor (MOR Ki) it was 7580 nM. For `O=C(NC1CCCC1)c1ccc2c(c1)Oc1ccccc1C2=C1CC2CCC(C1)N2` [Cpd 45], in that order: 673 nM and 3100 nM. `Cc1cccc(-c2ccc3c(c2)Oc2ccccc2C3=C2CC3CCC(C2)N3)c1` [Cpd 46] gave a Ki on delta opioid receptor (DOR Ki) of 723 nM.

Turning to `O=C(Nc1ccccc1)c1ccc2c(c1)Oc1ccccc1C2=C1CC2CCC(C1)N2` [Cpd 47], the Ki is 813 nM on delta opioid receptor (DOR Ki) and 1200 nM on mu opioid receptor (MOR Ki). On to `O=C(c1ccc2c(c1)Oc1ccccc1C2=C1CC2CCC(C1)N2)N(CC(F)(F)F)CC(F)(F)F` [Cpd 48], for which the Ki on delta opioid receptor (read-out: DOR Ki) is 939 nM; at mu opioid receptor (read-out: MOR Ki), 2060 nM. For `CC(C)CNC(=N)c1ccc2c(c1)Oc1ccccc1C2=C1CC2CCC(C1)N2` [Cpd 49], the results for the Ki on delta opioid receptor (DOR Ki) and on mu opioid receptor (MOR Ki) were 1330 nM and 4020 nM, respectively. In the case of `N=C(c1ccc2c(c1)Oc1ccccc1C2=C1CC2CCC(C1)N2)N1CCOCC1` [Cpd 50], the values for the Ki on delta opioid receptor (DOR Ki) and at mu opioid receptor (MOR Ki) were 1760 nM and 14900 nM, respectively. Turning to `Fc1ccc(-c2ccc3c(c2)Oc2ccccc2C3=C2CC3CCC(C2)N3)cc1` [Cpd 54], the Ki on delta opioid receptor (DOR Ki) came to 4470 nM.
